Laboratory results taken from ChEMBL document CHEMBL1153710, “Synthesis, stereochemistry and antimicrobial studies of novel oxime ethers of aza/diazabicycles” (2009).
Converted amounts (≈) assume the structure as drawn.

Experiments:
[1] = tested on: Aspergillus flavus; experiment: Antifungal activity against Aspergillus flavus by twofold serial dilution method; assay type: functional
[2] = tested on: Pseudomonas aeruginosa; experiment: Antibacterial activity against Pseudomonas aeruginosa by twofold serial dilution method; assay type: functional
[3] = tested on: Escherichia coli; experiment: Antibacterial activity against Escherichia coli by twofold serial dilution method; assay type: functional
[4] = tested on: Candida albicans; experiment: Antifungal activity against Candida albicans by twofold serial dilution method; assay type: functional
[5] = tested on: Rhizopus; experiment: Antifungal activity against Rhizopus sp. by twofold serial dilution method; assay type: functional
[6] = tested on: Staphylococcus aureus; experiment: Antibacterial activity against Staphylococcus aureus by twofold serial dilution method; assay type: functional
[7] = tested on: Aspergillus niger; experiment: Antifungal activity against Aspergillus niger by twofold serial dilution method; assay type: functional
[8] = tested on: Candida; experiment: Antifungal activity against Candida 51 by twofold serial dilution method; assay type: functional
[9] = tested on: Klebsiella pneumoniae; experiment: Antibacterial activity against Klebsiella pneumoniae by twofold serial dilution method; assay type: functional
[10] = tested on: Salmonella enterica; experiment: Antibacterial activity against Salmonella typhi by twofold serial dilution method; assay type: functional, Salmonella enterica subsp. enterica serovar Typhi

SMILES | MIC [1] [µg/mL] | MIC [2] [µg/mL] | MIC [3] [µg/mL] | MIC [4] [µg/mL] | MIC [5] [µg/mL] | MIC [6] [µg/mL] | MIC [7] [µg/mL] | MIC [8] [µg/mL] | MIC [9] [µg/mL] | MIC [10] [µg/mL]
c1ccc(CON=C2C3C(c4ccccc4)NC(c4ccccc4)C2C(c2ccccc2)NC3c2ccccc2)cc1 (stereo unspecified) | 200 (≈ 364 µM) | 100 (≈ 182 µM) | 100 (≈ 182 µM) | 100 (≈ 182 µM) | 200 (≈ 364 µM) | 200 (≈ 364 µM) | 100 (≈ 182 µM) | > 200 | > 200 | –
Fc1cccc(C2NC(c3cccc(F)c3)C3C(=NOCc4ccccc4)C2C(c2cccc(F)c2)NC3c2cccc(F)c2)c1 (stereo unspecified) | 25 (≈ 40.2 µM) | 12.5 (≈ 20.1 µM) | 25 (≈ 40.2 µM) | 25 (≈ 40.2 µM) | 50 (≈ 80.4 µM) | 12.5 (≈ 20.1 µM) | 50 (≈ 80.4 µM) | 50 (≈ 80.4 µM) | 50 (≈ 80.4 µM) | –
Fc1ccc(C2NC(c3ccc(F)cc3)C3C(=NOCc4ccccc4)C2C(c2ccc(F)cc2)NC3c2ccc(F)cc2)cc1 (stereo unspecified) | 50 (≈ 80.4 µM) | 6.25 (≈ 10.1 µM) | 12.5 (≈ 20.1 µM) | 12.5 (≈ 20.1 µM) | 12.5 (≈ 20.1 µM) | 12.5 (≈ 20.1 µM) | 25 (≈ 40.2 µM) | 25 (≈ 40.2 µM) | 25 (≈ 40.2 µM) | –
Clc1ccc(C2NC(c3ccc(Cl)cc3)C3C(=NOCc4ccccc4)C2C(c2ccc(Cl)cc2)NC3c2ccc(Cl)cc2)cc1 (stereo unspecified) | 12.5 (≈ 18.2 µM) | 6.25 (≈ 9.09 µM) | 50 (≈ 72.7 µM) | 12.5 (≈ 18.2 µM) | 25 (≈ 36.4 µM) | 25 (≈ 36.4 µM) | 25 (≈ 36.4 µM) | 50 (≈ 72.7 µM) | 50 (≈ 72.7 µM) | –
Cc1ccc(C2NC(c3ccc(C)cc3)C3C(=NOCc4ccccc4)C2C(c2ccc(C)cc2)NC3c2ccc(C)cc2)cc1 (stereo unspecified) | 25 (≈ 41.3 µM) | 6.25 (≈ 10.3 µM) | 25 (≈ 41.3 µM) | 25 (≈ 41.3 µM) | 50 (≈ 82.5 µM) | 25 (≈ 41.3 µM) | 50 (≈ 82.5 µM) | 50 (≈ 82.5 µM) | 100 (≈ 165 µM) | –
COc1ccc(C2NC(c3ccc(OC)cc3)C3C(=NOCc4ccccc4)C2C(c2ccc(OC)cc2)NC3c2ccc(OC)cc2)cc1 (stereo unspecified) | 50 (≈ 74.6 µM) | 12.5 (≈ 18.7 µM) | 50 (≈ 74.6 µM) | 50 (≈ 74.6 µM) | 50 (≈ 74.6 µM) | 25 (≈ 37.3 µM) | 25 (≈ 37.3 µM) | 100 (≈ 149 µM) | 100 (≈ 149 µM) | –
CN1C(c2ccc(F)cc2)C2CCCC(C2=NOCc2ccccc2)C1c1ccc(F)cc1 (stereo unspecified) | 50 (≈ 112 µM) | 12.5 (≈ 28 µM) | 12.5 (≈ 28 µM) | 12.5 (≈ 28 µM) | 25 (≈ 56 µM) | 50 (≈ 112 µM) | 25 (≈ 56 µM) | 25 (≈ 56 µM) | 25 (≈ 56 µM) | 25 (≈ 56 µM)
CN1C(c2ccc(Cl)cc2)C2CCCC(C2=NOCc2ccccc2)C1c1ccc(Cl)cc1 (stereo unspecified) | 100 (≈ 209 µM) | 12.5 (≈ 26.1 µM) | 50 (≈ 104 µM) | 25 (≈ 52.1 µM) | 12.5 (≈ 26.1 µM) | 12.5 (≈ 26.1 µM) | 12.5 (≈ 26.1 µM) | 12.5 (≈ 26.1 µM) | 50 (≈ 104 µM) | 25 (≈ 52.1 µM)
COc1ccc(C2C3CCCC(C3=NOCc3ccccc3)C(c3ccc(OC)cc3)N2C)cc1 (stereo unspecified) | 100 (≈ 212 µM) | 25 (≈ 53.1 µM) | 25 (≈ 53.1 µM) | 25 (≈ 53.1 µM) | 50 (≈ 106 µM) | 50 (≈ 106 µM) | 25 (≈ 53.1 µM) | 50 (≈ 106 µM) | 100 (≈ 212 µM) | 50 (≈ 106 µM)
Cc1ccc(C2C3CCCC(C3=NOCc3ccccc3)C(c3ccc(C)cc3)N2C)cc1 (stereo unspecified) | 25 (≈ 57 µM) | 25 (≈ 57 µM) | 100 (≈ 228 µM) | 50 (≈ 114 µM) | 50 (≈ 114 µM) | 25 (≈ 57 µM) | 100 (≈ 228 µM) | 50 (≈ 114 µM) | 100 (≈ 228 µM) | 50 (≈ 114 µM)
Clc1ccccc1C1NC(c2ccccc2Cl)C2CCCC1C2=NOCc1ccccc1 (stereo unspecified) | 12.5 (≈ 26.9 µM) | 6.25 (≈ 13.4 µM) | 12.5 (≈ 26.9 µM) | 12.5 (≈ 26.9 µM) | 50 (≈ 107 µM) | 12.5 (≈ 26.9 µM) | 50 (≈ 107 µM) | 6.25 (≈ 13.4 µM) | 50 (≈ 107 µM) | 50 (≈ 107 µM)
c1ccc(CON=C2C3CCCC2C(c2ccccc2)NC3c2ccccc2)cc1 (stereo unspecified) | 200 (≈ 504 µM) | 200 (≈ 504 µM) | 100 (≈ 252 µM) | 100 (≈ 252 µM) | > 200 | > 200 | > 200 | 200 (≈ 504 µM) | > 200 | 200 (≈ 504 µM)
Fc1cccc(C2NC(c3cccc(F)c3)C3CCCC2C3=NOCc2ccccc2)c1 (stereo unspecified) | 100 (≈ 231 µM) | 25 (≈ 57.8 µM) | 25 (≈ 57.8 µM) | 50 (≈ 116 µM) | 50 (≈ 116 µM) | 100 (≈ 231 µM) | 100 (≈ 231 µM) | 200 (≈ 462 µM) | 100 (≈ 231 µM) | 100 (≈ 231 µM)
Fc1ccc(C2NC(c3ccc(F)cc3)C3CCCC2C3=NOCc2ccccc2)cc1 (stereo unspecified) | 100 (≈ 231 µM) | 25 (≈ 57.8 µM) | 25 (≈ 57.8 µM) | 25 (≈ 57.8 µM) | 50 (≈ 116 µM) | 100 (≈ 231 µM) | 50 (≈ 116 µM) | 100 (≈ 231 µM) | 50 (≈ 116 µM) | 50 (≈ 116 µM)
Clc1ccc(C2NC(c3ccc(Cl)cc3)C3CCCC2C3=NOCc2ccccc2)cc1 (stereo unspecified) | 50 (≈ 107 µM) | 12.5 (≈ 26.9 µM) | 50 (≈ 107 µM) | 25 (≈ 53.7 µM) | 12.5 (≈ 26.9 µM) | 25 (≈ 53.7 µM) | 25 (≈ 53.7 µM) | 50 (≈ 107 µM) | 100 (≈ 215 µM) | 25 (≈ 53.7 µM)
Cc1ccc(C2NC(c3ccc(C)cc3)C3CCCC2C3=NOCc2ccccc2)cc1 (stereo unspecified) | 100 (≈ 236 µM) | 25 (≈ 58.9 µM) | 100 (≈ 236 µM) | 50 (≈ 118 µM) | 25 (≈ 58.9 µM) | 25 (≈ 58.9 µM) | 100 (≈ 236 µM) | 100 (≈ 236 µM) | 200 (≈ 471 µM) | 100 (≈ 236 µM)
COc1ccc(C2NC(c3ccc(OC)cc3)C3CCCC2C3=NOCc2ccccc2)cc1 (stereo unspecified) | 100 (≈ 219 µM) | 50 (≈ 110 µM) | 50 (≈ 110 µM) | 50 (≈ 110 µM) | 50 (≈ 110 µM) | 100 (≈ 219 µM) | 100 (≈ 219 µM) | 50 (≈ 110 µM) | 100 (≈ 219 µM) | 50 (≈ 110 µM)
CN1C(c2ccccc2)C2CCCC(C2=NOCc2ccccc2)C1c1ccccc1 (stereo unspecified) | > 200 | 100 (≈ 244 µM) | 100 (≈ 244 µM) | 50 (≈ 122 µM) | 50 (≈ 122 µM) | 200 (≈ 487 µM) | 200 (≈ 487 µM) | 200 (≈ 487 µM) | 200 (≈ 487 µM) | 100 (≈ 244 µM)
C[C@@H]1[C@H](O)[C@@H](C)/C=C/C=C/C=C/C=C/C=C/C=C/C=C/[C@H](O[C@@H]2O[C@H](C)[C@@H](O)[C@H](N)[C@@H]2O)C[C@@H]2O[C@](O)(C[C@@H](O)C[C@@H](O)[C@H](O)CC[C@@H](O)C[C@@H](O)CC(=O)O[C@H]1C)C[C@H](O)[C@H]2C(=O)O [AMPHOTERICIN B] | 50 (≈ 54.1 µM) | – | – | 25 (≈ 27.1 µM) | 25 (≈ 27.1 µM) | – | 50 (≈ 54.1 µM) | 25 (≈ 27.1 µM) | – | –
O=C(O)c1cn(C2CC2)c2cc(N3CCNCC3)c(F)cc2c1=O [CIPROFLOXACIN] | – | – | 25 (≈ 75.4 µM) | – | – | – | – | – | – | 50 (≈ 151 µM)
